According to the supplement of paper PMC10307832:

What was measured:
Test in all cases: relative viability (nuclei count vs DMSO), 5 days (fraction); higher = more cells survive
HOP-62 = system: HOP-62
Summary of the method: (§1)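 Relative viability is defined as nuclei in treated wells over nuclei in vehicle wells. Duplicate plates were run and medians reported. Lung cancer cell lines in 1536-well plates were dosed by pin tool one day after seeding, with one drug or with a fixed anchor-drug dose plus five library-drug doses (not always all listed) in √10 steps, and nuclei were counted after 5 days.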

NCI-H1793 = system: NCI-H1793
Summary of the method: as §1

UMC-11 = system: UMC-11
Summary of the method: as §1

HCC-15 = system: HCC-15
Summary of the method: as §1

NCI-H1395 = system: NCI-H1395
Summary of the method: as §1

NCI-H2347 = system: NCI-H2347
Summary of the method: as §1

NCI-H1993 = system: NCI-H1993
Summary of the method: as §1

NCI-H2170 = system: NCI-H2170
Summary of the method: as §1

NCI-H2009 = system: NCI-H2009
Summary of the method: as §1

NCI-H2228 = system: NCI-H2228
Summary of the method: as §1

NCI-H1355 = system: NCI-H1355
Summary of the method: as §1

SK-MES-1 = system: SK-MES-1
Summary of the method: as §1

NCI-H1734 = system: NCI-H1734
Summary of the method: as §1

NCI-H522 = system: NCI-H522
Summary of the method: as §1

COR-L 105 = system: COR-L 105
Summary of the method: as §1

NCI-H358 = system: NCI-H358
Summary of the method: as §1

HARA = system: HARA
Summary of the method: as §1

NCI-H647 = system: NCI-H647
Summary of the method: as §1

COR-L23 = system: COR-L23
Summary of the method: as §1

NCI-H1755 = system: NCI-H1755
Summary of the method: as §1

NCI-H838 = system: NCI-H838
Summary of the method: as §1

CC(=O)O[C@@]12CO[C@@H]1C[C@H](O)[C@@]1(C)C(=O)[C@H](O)C3=C(C)[C@@H](OC(=O)[C@H](O)[C@@H](NC(=O)OC(C)(C)C)c4ccccc4)C[C@@](O)([C@@H](OC(=O)c4ccccc4)[C@H]21)C3(C)C [Docetaxel] + Cc1cc(Nc2cc(N3CCN(C)CC3)nc(Sc3ccc(NC(=O)C4CC4)cc3)n2)n[nH]1 [Tozasertib] (partner 0.1 µM)
relative viability (HOP-62; first compound 0.0002 µM): 0.353
relative viability (HOP-62; first compound 0.000632 µM): 0.401
relative viability (HOP-62; first compound 0.002 µM): 0.281
relative viability (HOP-62; first compound 0.006325 µM): 0.277
relative viability (NCI-H1793; first compound 0.0002 µM): 0.372
relative viability (NCI-H1793; first compound 0.000632 µM): 0.285
relative viability (NCI-H1793; first compound 0.002 µM): 0.197
relative viability (NCI-H1793; first compound 0.006325 µM): 0.195
relative viability (NCI-H1793; first compound 0.02 µM): 0.136
relative viability (UMC-11; first compound 0.0002 µM): 0.193
relative viability (UMC-11; first compound 0.000632 µM): 0.193
relative viability (UMC-11; first compound 0.002 µM): 0.218
relative viability (UMC-11; first compound 0.006325 µM): 0.227
relative viability (UMC-11; first compound 0.02 µM): 0.217
relative viability (HCC-15; first compound 0.0002 µM): 0.391
relative viability (HCC-15; first compound 0.000632 µM): 0.266
relative viability (HCC-15; first compound 0.002 µM): 0.174
relative viability (HCC-15; first compound 0.006325 µM): 0.239
relative viability (HCC-15; first compound 0.02 µM): 0.135
relative viability (NCI-H1395; first compound 0.0002 µM): 0.698
relative viability (NCI-H1395; first compound 0.000632 µM): 0.753
relative viability (NCI-H1395; first compound 0.002 µM): 0.59
relative viability (NCI-H1395; first compound 0.006325 µM): 0.372
relative viability (NCI-H1395; first compound 0.02 µM): 0.325
relative viability (NCI-H2347; first compound 0.0002 µM): 0.511
relative viability (NCI-H2347; first compound 0.000632 µM): 0.594
relative viability (NCI-H2347; first compound 0.002 µM): 0.441
relative viability (NCI-H2347; first compound 0.006325 µM): 0.293
relative viability (NCI-H2347; first compound 0.02 µM): 0.268
relative viability (NCI-H1993; first compound 0.0002 µM): 0.644
relative viability (NCI-H1993; first compound 0.000632 µM): 0.592
relative viability (NCI-H1993; first compound 0.002 µM): 0.604
relative viability (NCI-H1993; first compound 0.006325 µM): 0.515
relative viability (NCI-H1993; first compound 0.02 µM): 0.586
relative viability (NCI-H2170; first compound 0.0002 µM): 0.615
relative viability (NCI-H2170; first compound 0.000632 µM): 0.581
relative viability (NCI-H2170; first compound 0.002 µM): 0.43
relative viability (NCI-H2170; first compound 0.006325 µM): 0.222
relative viability (NCI-H2170; first compound 0.02 µM): 0.175
relative viability (NCI-H2009; first compound 0.0002 µM): 0.626
relative viability (NCI-H2009; first compound 0.000632 µM): 0.747
relative viability (NCI-H2009; first compound 0.002 µM): 0.682
relative viability (NCI-H2009; first compound 0.006325 µM): 0.553
relative viability (NCI-H2009; first compound 0.02 µM): 0.302
relative viability (NCI-H2228; first compound 0.0002 µM): 0.242
relative viability (NCI-H2228; first compound 0.000632 µM): 0.169
relative viability (NCI-H2228; first compound 0.002 µM): 0.127
relative viability (NCI-H2228; first compound 0.006325 µM): 0.168
relative viability (NCI-H2228; first compound 0.02 µM): 0.121
relative viability (NCI-H1355; first compound 0.0002 µM): 0.453
relative viability (NCI-H1355; first compound 0.000632 µM): 0.43
relative viability (NCI-H1355; first compound 0.002 µM): 0.271
relative viability (NCI-H1355; first compound 0.006325 µM): 0.263
relative viability (NCI-H1355; first compound 0.02 µM): 0.202
relative viability (SK-MES-1; first compound 0.0002 µM): 0.974
relative viability (SK-MES-1; first compound 0.000632 µM): 0.459
relative viability (SK-MES-1; first compound 0.002 µM): 0.252
relative viability (SK-MES-1; first compound 0.006325 µM): 0.166
relative viability (SK-MES-1; first compound 0.02 µM): 0.134
relative viability (NCI-H1734; first compound 0.0002 µM): 0.308
relative viability (NCI-H1734; first compound 0.000632 µM): 0.345
relative viability (NCI-H1734; first compound 0.002 µM): 0.302
relative viability (NCI-H1734; first compound 0.006325 µM): 0.341
relative viability (NCI-H1734; first compound 0.02 µM): 0.292
relative viability (NCI-H522; first compound 0.0002 µM): 0.559
relative viability (NCI-H522; first compound 0.000632 µM): 0.451
relative viability (NCI-H522; first compound 0.002 µM): 0.527
relative viability (NCI-H522; first compound 0.006325 µM): 0.551
relative viability (NCI-H522; first compound 0.02 µM): 0.585
relative viability (COR-L 105; first compound 0.0002 µM): 0.323
relative viability (COR-L 105; first compound 0.000632 µM): 0.382
relative viability (COR-L 105; first compound 0.002 µM): 0.36
relative viability (COR-L 105; first compound 0.006325 µM): 0.384
relative viability (COR-L 105; first compound 0.02 µM): 0.344
relative viability (NCI-H358; first compound 0.0002 µM): 0.114
relative viability (NCI-H358; first compound 0.000632 µM): 0.112
relative viability (NCI-H358; first compound 0.006325 µM): 0.137
relative viability (NCI-H358; first compound 0.02 µM): 0.117
relative viability (HARA; first compound 0.0002 µM): 0.0918
relative viability (HARA; first compound 0.000632 µM): 0.102
relative viability (HARA; first compound 0.002 µM): 0.0951
relative viability (HARA; first compound 0.006325 µM): 0.0945
relative viability (HARA; first compound 0.02 µM): 0.0738
relative viability (NCI-H647; first compound 0.0002 µM): 0.258
relative viability (NCI-H647; first compound 0.000632 µM): 0.339
relative viability (NCI-H647; first compound 0.002 µM): 0.148
relative viability (NCI-H647; first compound 0.006325 µM): 0.132
relative viability (NCI-H647; first compound 0.02 µM): 0.103
relative viability (COR-L23; first compound 0.0002 µM): 0.199
relative viability (COR-L23; first compound 0.000632 µM): 0.21
relative viability (COR-L23; first compound 0.002 µM): 0.141
relative viability (COR-L23; first compound 0.006325 µM): 0.153
relative viability (COR-L23; first compound 0.02 µM): 0.133
relative viability (NCI-H1755; first compound 0.0002 µM): 0.62
relative viability (NCI-H1755; first compound 0.000632 µM): 0.609
relative viability (NCI-H1755; first compound 0.002 µM): 0.46
relative viability (NCI-H1755; first compound 0.006325 µM): 0.335
relative viability (NCI-H1755; first compound 0.02 µM): 0.373
relative viability (NCI-H838; first compound 0.0002 µM): 0.236
relative viability (NCI-H838; first compound 0.000632 µM): 0.27
relative viability (NCI-H838; first compound 0.002 µM): 0.258
relative viability (NCI-H838; first compound 0.006325 µM): 0.28
relative viability (NCI-H838; first compound 0.02 µM): 0.193
